Measured values reported in US11452731B2, “Method of treating and preventing loss of cognition” (ENDORECHERCHE, INC., priority 2009, dated 2022).
Counter-ions that a name gives are not always drawn. Marks after values point to notes of the source that are not given here.

Tests used:
[1] = 26-week treatment of ovariectomized rats: lumbar spine BMD, total body fat, serum cholesterol, ALP (Example 4, experiment 2); assay type: in vivo, rat; settings: OVX rats, 26 weeks
Method: Ten to twelve week-old female Sprague-Dawley rats (Crl:CD(SD)Br) (Charles River Laboratory, St-Constant, Canada) weighing approximately 220-270 g at start of treatment were used. […] The animals were housed individually and were allowed free access to tap water and a pelleted certified rodent feed (Lab Diet 5002, Ralston Purina, St-Louis, Mo.). Experiments were conducted in an animal facility approved by the Canadian Council on Animal Care (CCAC) and the Association for Assessment and Accreditation of Laboratory Animal Care (AAALAC) in accordance with the CCAC Guide for Care and Use of Experimental Animals. […] Treatments were initiated on day 2 of the study and were performed once daily during 26 weeks. In both experiments, animals not receiving a test article were treated with the appropriate vehicle alone during the same period. […] QDR 4500A, Hologic, Waltham, Mass.) and a Regional High Resolution Scan software. […] Samples were processed for serum preparation and frozen at -80° C. until assay. Serum cholesterol levels and alkaline phospatase activity (ALP) were determined using the Boehringer Mannheim Diagnostic Hitachi 911 Analyzer (Boehringer Mannheim Diagnostic Laboratory Systems).

[2] = tested on: ZR-75-1 human breast cancer xenografts; assay: Growth and response of human ZR-75-1 breast tumors in OVX nude mice, 7 antiestrogens for 161 days with or without estrone (Example 8); assay type: in vivo
Method: ZR-75-1 human breast cancer cells were obtained from the American Type Culture Collection (Rockville, Md.) and cultured in phenol red-free RPMI-1640 medium. […] (Saint-Constant, Québec, Canada). The mice (5 per cage) were housed in vinyl cages equipped with air filter lids, which were kept in laminar airflow hoods and maintained under pathogen-limiting conditions. The photoperiod was 12 hours of light and 12 hours of darkness (lights on at 07:15). Cages, bedding and food (Agway Pro-Lab R-M-H Diet #4018) were autoclaved before use. Water was autoclaved and provided ad libitum. Bilateral ovariectomy was performed under isoflurane-induced anesthesia. […] Randomization and treatments were started one week later. […] The estrone implants were then removed from the animals in the ovariectomized control group (OVX) and in groups that were to receive the antiestrogen alone. […] Tamoxifen was purchased from […]) while toremifene citrate was purchased from Orion (Espoo, Finland). […] The antiestrogen suspensions at the appropriate concentration were prepared each month, stored at 4° C. and used under constant agitation. Powder stock were hermetically stored at 4° C. […] Two perpendicular diameters were recorded and tumor area (mm2) was calculated using the formula: […] Tumor response was assessed at the end of the study or at death of each animal, if it occurred during the course of the experiment. In this case, only data of mice that survived for at least half of the study ([…]) were used in the tumor response analysis.

[3] = Uterine, vaginal and body weight in estrone-supplemented OVX nude mice (Example 1); assay type: in vivo; settings: estrone alone
Method: DHEA was dissolved in 50% ethanol 50% propylene glycol. […] Tumors were measured once a week with Vernier calipers.

[4] = Uterine and vaginal weight in ovariectomized BALB/c mice treated orally for 9 days with or without estrone (Example 3); assay type: in vivo; settings: OVX + E1 alone
Method: Female BALB/c mice (BALB/cAnNCrlBR) weighing 18-20 g were obtained from Charles-River, Inc. (St-Constant, Quebec, Canada) and housed 5 per cage in a temperature (23±1° C.)- and light (12 h light/day, lights on at 7:15)-controlled environment. The mice were fed rodent chow and tap water ad libitum. The animals were ovariectomized (OVX) under Isoflurane anesthesia via bilateral flank incisions and randomly assigned to groups of 10 animals. Ten mice were kept intact as controls.
In the second experiment (Table 6), TSE 424 was administered orally by gavage once daily at doses of 1, 3, 10 or 30 μg/animal for 9 days, starting 2 days after ovariectomy. In both experiments, to evaluate the antiestrogenic activity, treatment with estrone (E1, […], s.c. injection, twice daily) was started 5 days post-ovariectomy and was administered for a 6 day-period. Compounds were dissolved in ethanol (4% final concentration) and administered in 0.4% methylcellulose. Mice in the intact and OVX control groups received the vehicle alone (4% ETOH-0.4% methylcellulose) during the 9-day period. The animals were killed by exsanguination at the abdominal aorta on the 11th morning following ovariectomy. The uteri and vagina were rapidly dissected, weighed, and kept in 10% buffered formalin for further histologic examination.

[5] = tested on: ZR-75-1 human breast cancer xenografts; assay: Growth and response of human ZR-75-1 breast tumor xenografts in estrone-supplemented OVX nude mice, DHEA and/or EM-800 for 9.5 months (Example 1); assay type: in vivo
[6] = Endometrial epithelium thickness in OVX nude mice after 161 days of antiestrogen (Example 8); assay type: in vivo
Source text: The 17 groups included two control groups (OVX and OVX+Estrone), seven groups supplemented with an estrone implant and treated with an antiestrogen and eight other groups that received an antiestrogen alone. The estrone implants were then removed from the animals in the ovariectomized control group (OVX) and in groups that were to receive the antiestrogen alone. […] Tamoxifen was purchased from […]) while toremifene citrate was purchased from Orion (Espoo, Finland). […] The antiestrogen suspensions at the appropriate concentration were prepared each month, stored at 4° C. and used under constant agitation. Powder stock were hermetically stored at 4° C. […] After 161 days of treatment, the remaining animals were anesthetized with isoflurane and killed by exsanguination. […] The uteri were prepared to evaluate endometrial thickness by image analysis performed with Image Pro-Plus (Media Cybernetics, Maryland, USA). […] Hematoxylin- and eosin-stained sections of mice uteri were analyzed. […] Mean epithelial cell height was measured in all animals of each group.

[7] = 3-month treatment of ovariectomized rats: lumbar spine BMD, total body fat, serum cholesterol, ALP (Example 4, experiment 1); assay type: in vivo, rat; settings: OVX rats, 3 months
Method: (§1) Ten to twelve week-old female Sprague-Dawley rats (Crl:CD(SD)Br) (Charles River Laboratory, St-Constant, Canada) weighing approximately 220-270 g at start of treatment were used. The animals were acclimatized to the environmental conditions (temperature: 22±3° C.; humidity: 50±20%; 12-h light-12-h dark cycles, lights on at 07:15 h) for at least 1 week before starting the experiments. The animals were housed individually and were allowed free access to tap water and a pelleted certified rodent feed (Lab Diet 5002, Ralston Purina, St-Louis, Mo.). Experiments were conducted in an animal facility approved by the Canadian Council on Animal Care (CCAC) and the Association for Assessment and Accreditation of Laboratory Animal Care (AAALAC) in accordance with the CCAC Guide for Care and Use of Experimental Animals.
(§2) On day 1 of the study, the animals of the appropriate groups were bilaterally ovariectomized (OVX) under isoflurane anesthesia. The DHEA was applied topically on the dorsal skin as a solution in 50% ethanol-50% propylene glycol while the other tested compounds were administered as suspension in 0.4% methylcellulose by oral gavage. Treatments were initiated on day 2 of the study and were performed once daily during 3 months.
After 3 months (experiment 1) or 26 weeks (experiment 2) of treatment, individual rats under Isoflurane anesthesia had their whole body skeleton and lumbar spine scanned using dual energy x-ray absorptiometry (DEXA; QDR 4500A, Hologic, Waltham, Mass.) and a Regional High Resolution Scan software. The bone mineral density (BMD) of the lumbar spine (vertebrae L2 to L4) and the total body composition (fat percentage) were determined.
After 3 months (experiment 1) or 26 weeks (experiment 2) of treatment, blood samples were collected at the jugular vein from overnight fasted animals (under Isoflurane anesthesia). Samples were processed for serum preparation and frozen at −80° C. until assay. Serum cholesterol levels and alkaline phospatase activity (ALP) were determined using the Boehringer Mannheim Diagnostic Hitachi 911 Analyzer (Boehringer Mannheim Diagnostic Laboratory Systems).

[8] = tested on: human Ishikawa cells; assay: Alkaline phosphatase activity in human endometrial adenocarcinoma Ishikawa cells (Example 6); settings: for Emax: read-out: Maximal stimulation of alkaline phosphatase % of 1 nM E2 stimulation
[9] = 5-week treatment of ovariectomized rats with SERMs alone or with DHEA: BMD of lumbar spine, femur, tibia (Example 5); assay type: in vivo, rat; settings: OVX rats, 5 weeks
Method: as §1
as §2, with “(Ovx)” for “(OVX)”, “the” for “the other”, “SERMs” for “compounds”, “5 weeks.” for “3 months.”
After 5 weeks of treatment, individual rats under Isoflurane anesthesia had their lumbar spine, femur and tibia scanned using dual energy x-ray absorptiometry (DEXA; QDR 4500A, Hologic, Waltham, Mass.) and a Regional High Resolution Scan software. The bone mineral density (BMD) of the lumbar spine (vertebrae L2 to L4), distal femoral metaphysis (DFM) and proximal tibial metaphysis (PTM) were determined.

[10] = 12-month treatment of ovariectomized rats with DHEA alone or with Flutamide or EM-800: bone histomorphometry, bone markers, serum lipids; assay type: in vivo, rat; settings: added to DHEA, OVX rats, 12 months
[11] = Premarin 0.25 mg/kg, SERMs 2.5 mg/kg
[12] = estrone-supplemented, 50 μg daily, 161 days
[13] = E2 1 mg/kg, EM-652.HCl 2.5 mg/kg, DHEA 80 mg/kg
[14] = Ishikawa cells, 5-day incubation, 1 nM E2

Oc1ccc2c(c1)CC[C@H](c1ccccc1)[C@@H]2c1ccc(OCCN2CCCC2)cc1 (racemic) [Lasofoxifene, (−)-cis-(5R,6S)-6-phenyl-5-[4-(2-pyrrolidin-1-ylethoxy)phenyl]-5,6,7,8-tetrahydronaphthalen-2-ol, D-(−)-tartrate salt]
ALP [1]: 116 ± 9 IU
CHOLESTEROL (serum) [1]: 0.60 ± 0.02 mmol/L
TOTAL FAT [1]: 24.1 ± 1.3 %
reversal of the fat increase induced by estrogen deficiency [1]: 114%
LUMBAR SPINE BMD [1, 11]: 0.2307 ± 0.0040 g/cm^2
LUMBAR SPINE Prevention of Bone Loss [1, 11]: 61%

C[C@]12CC[C@@H]3c4ccc(O)cc4CC[C@H]3[C@@H]1CCC2=O [E1, estrone]
increase in ZR-75-1 tumor size ([2]; Estrone alone (OVX+E1), 23 weeks): 707%
UTERINE WEIGHT [3]: 132 ± 8 mg
VAGINAL WEIGHT [3]: 31 ± 2 mg
UTERINE WEIGHT [4]: 118.3 ± 6.0 mg
VAGINAL WEIGHT [4]: 53.4 ± 2.8 mg
Category of response: Complete (%) ([5]; E1 0.5 μg alone): 0 (0) %
Category of response: Complete (Number) ([5]; E1 0.5 μg alone): 0 (0)
Category of response: Partial (%) ([5]; E1 0.5 μg alone): 0 (0) %
Category of response: Partial (Number) ([5]; E1 0.5 μg alone): 0 (0)
Category of response: Progression (%) ([5]; E1 0.5 μg alone): 87.5%
Category of response: Progression (Number) ([5]; E1 0.5 μg alone): 14
Category of response: Stable (%) ([5]; E1 0.5 μg alone): 12.5%
Category of response: Stable (Number) ([5]; E1 0.5 μg alone): 2
Category of response: Complete (%) ([5]; E1 0.5 μg alone, listed as estrone): 0%
Average tumor weight at end of experiment ([5]; estrone 0.5 μg alone (control E1-supplemented OVX mice)): 1.12 ± 0.26 g
increase in ZR-75-1 tumor size ([5]; estrone 0.5 μg s.c. daily alone, 291 days (9.5 months)): 9.4 fold

CC/C(=C(\c1ccccc1)c1ccc(/C=C/C(=O)O)cc1)c1ccccc1 [GW 5638]
inhibition of the stimulatory effect of estrone on epithelial height ([6]; 50 μg daily oral, estrone stimulation): 24%
height of uterine epithelial cells, % of the OVX control group value ([6]; 200 μg daily, absence of estrone): 121%
ENDOMETRIAL EPITHELIUM THICKNESS (μm) ± SEM ([6]; OVX + E1, antiestrogen 50 μg daily): 35.30^b,d ± 0.07 μm
ENDOMETRIAL EPITHELIUM THICKNESS (μm) ± SEM ([6]; OVX without E1, antiestrogen 200 μg daily): 22.22^a ± 0.05 μm
increase of average tumor size over baseline (agonistic effect) ([2]; absence of estrone, 200 μg daily, 161 days): did not significantly change
average tumor size above pretreatment values ([2]; estrone-stimulated, 50 μg oral daily, 23 weeks): 227%
progressing tumors, % of tumors [2, 12]: 77%
progressing tumors, number of total [2, 12]: 20 of 26
ALP (serum alkaline phosphatase activity) [7]: 72 ± 6 IU/L
CHOLESTEROL (serum) [7]: 1.14 ± 0.08 mmol/L
TOTAL FAT [7]: 21.9 ± 1.4 %
LUMBAR SPINE BMD [7, 13]: 0.2299 ± 0.0060 g/cm^2
LUMBAR SPINE Prevention of Bone Loss [7, 13]: 34%
Emax ([8]; Homo sapiens, Ishikawa, 120 h): 7.75 ± 5.5%
Inhibition of 1 nM E2-induced stimulation of alkaline phosphatase IC50 [8, 14]: No inhibition

Cc1c(-c2ccc(O)cc2)n(Cc2ccc(OCCN3CCCCC3)cc2)c2ccc(O)cc12 [ERA-923, 2-(4-hydroxyphenyl)-3-methyl-1-[[4-[2-(1-piperidinyl)ethoxy]phenyl]methyl]-1H-indol-5-ol]
DISTAL FEMORAL METAPHYSIS (DFM) BMD [9]: 0.2969 ± 0.0029 g/cm^2
DISTAL FEMORAL METAPHYSIS (DFM) Prevention of Bone Loss [9]: 83%
PROXIMAL TIBIAL METAPHYSIS (PFM) BMD [9]: 0.2805 ± 0.0034 g/cm^2
PROXIMAL TIBIAL METAPHYSIS (PFM) Prevention of Bone Loss [9]: 91%
LUMBAR SPINE (L2-L4) BMD ([9]; SERMs 2.5 mg/kg, DHEA 80 mg/kg): 0.2214 ± 0.0029 g/cm^2
LUMBAR SPINE (L2-L4) Prevention of Bone Loss ([9]; SERMs 2.5 mg/kg, DHEA 80 mg/kg): 78%
IC50 ([8]; Homo sapiens, Ishikawa, 120 h, read-out: Inhibition of 1 nM E2-induced stimulation of alkaline phosphatase IC50): 5.84 nM
Emax ([8]; Homo sapiens, Ishikawa, 120 h): 0.6%
Maximal inhibition of 1 nM E2-induced stimulation of alkaline phosphatase [8, 14]: 100.16 (1)

CC(C)C(=O)Nc1ccc([N+](=O)[O-])c(C(F)(F)F)c1 [FLU, Flutamide]
reversal of the stimulatory effect of DHEA on serum alkaline phosphatase [10]: 65%
